Test [1] addresses 72 kDa type IV collagenase (Homo sapiens, UniProt P08253). The test can be described thus: Inhibition of human matrix metalloprotease-2 expressed in Sf9 insect cells; NA:Not active.
Test [2] concerns the target T1, Matrix metalloproteinase-9 (Homo sapiens, UniProt P14780). Put plainly: Inhibition of human matrix metalloprotease-9 expressed in Sf9 insect cells; NA:Not active.
For test [3], the target named is T2, Matrix metalloproteinase-14 (Homo sapiens, UniProt P50281). Put plainly: Inhibitory concentration against matrix metalloprotease-14 in Escherichia coli was determined; NA:Not active.
Test [4] addresses T3, Aminopeptidase N (Homo sapiens, UniProt P15144). Put plainly: Binding affinity towards aminopeptidase N.
Test [5] concerns the target T3, Aminopeptidase N. Put plainly: Inhibitory concentration against aminopeptidase N.
For test [6], the target named is T2, Matrix metalloproteinase-14. The test can be described thus: Inhibition of human matrix metalloprotease-14 expressed in Escherichia coli.
Test [7] concerns the target T1, Matrix metalloproteinase-9. The test can be described thus: Inhibition of human matrix metalloprotease-9 expressed in Sf9 insect cells.

The structures appear in SMILES notation.

T3 sequence (P15144 whole entry): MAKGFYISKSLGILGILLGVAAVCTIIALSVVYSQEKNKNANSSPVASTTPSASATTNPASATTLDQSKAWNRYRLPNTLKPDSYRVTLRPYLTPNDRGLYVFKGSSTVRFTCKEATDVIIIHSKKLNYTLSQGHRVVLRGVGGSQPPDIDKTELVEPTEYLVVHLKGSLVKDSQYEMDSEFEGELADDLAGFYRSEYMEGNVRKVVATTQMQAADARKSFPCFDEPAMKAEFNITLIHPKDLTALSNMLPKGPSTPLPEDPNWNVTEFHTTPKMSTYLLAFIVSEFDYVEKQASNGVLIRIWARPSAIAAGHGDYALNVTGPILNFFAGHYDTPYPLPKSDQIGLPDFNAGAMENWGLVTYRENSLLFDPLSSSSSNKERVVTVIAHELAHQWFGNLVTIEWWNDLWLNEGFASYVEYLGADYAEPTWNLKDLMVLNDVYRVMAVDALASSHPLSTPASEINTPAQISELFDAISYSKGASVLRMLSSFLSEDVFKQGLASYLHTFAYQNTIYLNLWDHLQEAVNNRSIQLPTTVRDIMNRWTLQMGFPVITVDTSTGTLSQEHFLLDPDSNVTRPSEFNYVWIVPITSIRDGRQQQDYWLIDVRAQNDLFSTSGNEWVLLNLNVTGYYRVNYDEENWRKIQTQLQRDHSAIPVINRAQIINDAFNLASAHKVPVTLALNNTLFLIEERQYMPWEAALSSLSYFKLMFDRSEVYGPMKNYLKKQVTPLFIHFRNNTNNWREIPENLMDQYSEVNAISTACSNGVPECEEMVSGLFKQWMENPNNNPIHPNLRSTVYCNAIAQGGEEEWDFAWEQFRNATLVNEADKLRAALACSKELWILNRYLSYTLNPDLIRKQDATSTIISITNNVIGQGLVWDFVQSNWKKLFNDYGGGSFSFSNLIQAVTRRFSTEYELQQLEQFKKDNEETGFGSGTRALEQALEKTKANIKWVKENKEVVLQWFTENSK
T1 sequence (P14780 whole entry): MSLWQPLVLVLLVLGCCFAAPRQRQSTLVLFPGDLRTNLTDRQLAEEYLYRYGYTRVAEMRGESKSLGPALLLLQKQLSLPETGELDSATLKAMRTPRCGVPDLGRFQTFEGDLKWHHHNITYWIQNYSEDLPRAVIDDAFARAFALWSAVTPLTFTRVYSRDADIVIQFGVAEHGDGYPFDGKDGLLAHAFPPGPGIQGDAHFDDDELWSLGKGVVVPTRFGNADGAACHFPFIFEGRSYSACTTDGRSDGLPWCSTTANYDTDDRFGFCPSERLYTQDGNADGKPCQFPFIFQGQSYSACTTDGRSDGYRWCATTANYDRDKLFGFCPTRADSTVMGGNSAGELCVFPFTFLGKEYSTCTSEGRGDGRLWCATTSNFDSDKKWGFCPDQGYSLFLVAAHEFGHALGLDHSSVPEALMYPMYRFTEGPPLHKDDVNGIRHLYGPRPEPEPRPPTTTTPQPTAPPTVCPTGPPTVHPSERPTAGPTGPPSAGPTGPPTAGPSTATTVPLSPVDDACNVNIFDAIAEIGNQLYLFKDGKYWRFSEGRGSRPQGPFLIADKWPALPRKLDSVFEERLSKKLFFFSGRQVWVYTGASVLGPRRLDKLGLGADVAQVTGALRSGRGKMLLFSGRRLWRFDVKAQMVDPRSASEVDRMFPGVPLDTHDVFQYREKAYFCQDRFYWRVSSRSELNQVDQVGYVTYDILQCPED
Chain of 72 kDa type IV collagenase (P08253 whole entry): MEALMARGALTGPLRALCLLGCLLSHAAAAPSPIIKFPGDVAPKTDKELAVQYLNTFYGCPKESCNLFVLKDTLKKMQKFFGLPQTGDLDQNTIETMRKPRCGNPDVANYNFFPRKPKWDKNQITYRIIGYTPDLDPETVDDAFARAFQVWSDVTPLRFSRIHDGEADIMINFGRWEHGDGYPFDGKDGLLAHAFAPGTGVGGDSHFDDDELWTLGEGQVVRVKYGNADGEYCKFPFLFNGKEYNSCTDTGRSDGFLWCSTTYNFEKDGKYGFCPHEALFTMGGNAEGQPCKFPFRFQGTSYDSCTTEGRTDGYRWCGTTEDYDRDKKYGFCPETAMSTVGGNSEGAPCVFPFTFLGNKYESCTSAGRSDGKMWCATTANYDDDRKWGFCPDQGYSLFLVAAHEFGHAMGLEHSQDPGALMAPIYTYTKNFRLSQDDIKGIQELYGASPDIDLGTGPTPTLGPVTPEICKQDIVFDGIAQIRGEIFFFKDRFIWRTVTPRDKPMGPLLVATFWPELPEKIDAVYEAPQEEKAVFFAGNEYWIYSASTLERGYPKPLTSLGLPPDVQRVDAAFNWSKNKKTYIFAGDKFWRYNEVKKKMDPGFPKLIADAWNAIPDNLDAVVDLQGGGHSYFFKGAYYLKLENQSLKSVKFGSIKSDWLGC

One may read the IC50 as the concentration at which inhibition is half-maximal. The low end stands for higher potency, the high end for lower potency. As a reminder, the Ki is a measure of affinity in units of concentration, obtained from inhibition or displacement. A low value points to a stronger hold on the target. As to `O=C(CSc1ccc2ccccc2c1)NO`, the IC50 result in test [1] was “Not Active”; in test [2], “Not Active”; in test [3], “Not Active”; at Aminopeptidase N [5] it was 3.4 µM. In addition, affinity on Aminopeptidase N [4] was put at a Ki of 3.5 µM.
Consider `CNC(=O)[C@H](Cc1ccccc1)NC(=O)[C@H](CC(C)C)[C@H](CSc1cccs1)C(=O)NO` [BATIMASTAT], for which the IC50 was found to be 0.047 µM in test [6] and 0.025 µM in test [7].

The record behind these values is ChEMBL document CHEMBL1145216, “N-hydroxy-2-(naphthalene-2-ylsulfanyl)-acetamide, a novel hydroxamic acid-based inhibitor of aminopeptidase N and its anti-angiogenic activity” (Bioorg Med Chem Lett, 2005).
